Reference: BindingDB's records for doi:10.1021/jm060653b (Pfizer, 2007)

Biological target: T1, cAMP and cAMP-inhibited cGMP 3',5'-cyclic phosphodiesterase 10A (Rattus norvegicus, UniProt Q9QYJ6)
T1 sequence (Q9QYJ6 whole entry): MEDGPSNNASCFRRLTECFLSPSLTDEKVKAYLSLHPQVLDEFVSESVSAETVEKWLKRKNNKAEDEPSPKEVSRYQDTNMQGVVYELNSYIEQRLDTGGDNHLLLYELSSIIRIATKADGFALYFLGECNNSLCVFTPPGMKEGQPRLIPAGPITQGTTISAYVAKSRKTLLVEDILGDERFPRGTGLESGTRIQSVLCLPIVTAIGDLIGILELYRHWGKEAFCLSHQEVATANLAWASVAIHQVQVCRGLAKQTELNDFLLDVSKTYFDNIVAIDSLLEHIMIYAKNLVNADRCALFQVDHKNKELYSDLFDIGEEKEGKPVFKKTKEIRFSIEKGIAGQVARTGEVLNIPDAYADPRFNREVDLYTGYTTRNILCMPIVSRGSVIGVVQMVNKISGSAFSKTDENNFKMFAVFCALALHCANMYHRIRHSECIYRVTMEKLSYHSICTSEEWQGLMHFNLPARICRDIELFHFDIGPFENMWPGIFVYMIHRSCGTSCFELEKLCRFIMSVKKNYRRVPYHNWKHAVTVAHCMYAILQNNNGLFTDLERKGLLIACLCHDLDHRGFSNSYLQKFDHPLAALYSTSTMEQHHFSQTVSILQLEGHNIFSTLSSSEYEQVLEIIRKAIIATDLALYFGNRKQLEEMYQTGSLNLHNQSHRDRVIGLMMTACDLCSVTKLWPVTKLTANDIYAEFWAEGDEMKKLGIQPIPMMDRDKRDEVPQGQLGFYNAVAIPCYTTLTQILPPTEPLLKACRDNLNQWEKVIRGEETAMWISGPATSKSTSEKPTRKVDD
Test: PDE Competitive Enzyme Inhibition Assay
Conditions: pH 7.5; 22 °C
Source text: PDE activity was monitored by measuring the hydrolysis of [3H]-cAMP to [3H]-AMP using a scintillation proximity assay (SPA). [3H]-AMP was captured by the SPA beads, and quantified on a TopCount plate reader.

Ki: 100 nM
SMILES: COc1cc2ncnc(N3CC[C@@H](Oc4ccc(C(C)(C)C)cc4)C3)c2cc1OC [(R)-4-[3-(4-tert-Butyl-phenoxy)-pyrrolidin-1-yl]-6,7-dimethoxy-quinazoline]
